Reference: patent US20250127709A1, “COSMETIC COMPOSITION CONTAINING IRIS GERMANICA ROOT-DERIVED EXOSOMES AS AN ACTIVE INGREDIENT” (PP PRODUITS PRESTIGES SA, priority 2021, published 2025)

Assays:
Format in all cases: cell-based, human
AQP3 (Aquaporin 3) = test: Moisturizing efficacy: AQP3 mRNA expression by RT-PCR in HEKa; settings: treated with 0.01%, positive control
Description: In order to confirm a moisturizing efficacy of the Iris germanica rhizome-derived exosomes, they were evaluated for their effect on AQP3 expression by comparing them with the Iris germanica rhizome extracts for each solvent. After inoculating a human epidermal keratinocyte (HEKa), they were cultured in a culture medium of Dulbecco Modified Eagle Medium (DMEM) supplemented with 100 IU/mL of penicillin and 100 μg/mL of streptomycin under 5% CO2 at 37° C. for 24 hours. After the culture, the medium was discarded, and the iris germanica rhizome-derived exosomes (stock concentration 9.90×10^9 particles/mL) and the iris germanica rhizome extracts for each solvent (stock concentration 100 mg/mL) were treated at each concentration and cultured for 48 hours. Thereafter, RNA was extracted from the cultured cells using a TransZol reagent, followed by performing RT-PCR (real-time genetic polymerase chain reaction) to measure an amount of mRNA change in AQP3 (Aquaporin 3), which is a moisturizing factor involved in moisture movement in the cells and is a protein that plays an important role in skin moisturization. A product generated by the PCR was identified with a Gel Documentation system by performing electrophoresis on a 1% agarose gel. In this case, a negative control group was treated with PBS, and a positive control group was treated with 0.01% of a hyaluronic acid. […]

MMP-1 = test: Wrinkle improvement efficacy: MMP-1 mRNA expression in UVB-irradiated HDFa; settings: UVB 20 mJ/cm^2, treated with 50 μM, positive control
Description: In order to confirm an anti-aging efficacy of the Iris germanica rhizome-derived exosomes, they were evaluated for their effect on MMP-1 expression by comparing them with the Iris germanica rhizome extracts for each solvent. After inoculating a human dermal fibroblast (HDFa), they were cultured in a culture medium of Fibroblast Basal Medium (Medium 106) containing 100 IU/mL of penicillin and 100 μg/mL of streptomycin under 5% CO2 at 37° C. for 24 hours. After the culture, the medium was discarded, and the Iris germanica rhizome-derived exosomes (stock concentration 9.90×10^9 particles/mL) and the Iris germanica rhizome extracts for each solvent (stock concentration 100 mg/mL) were treated at each concentration and cultured for 48 hours. In order to induce cell damage, the remaining cultured cell groups except for the non-UVB irradiation group were removed from the medium, and then the medium was irradiated with 20 mJ/cm^2 of UVB and replaced with a new medium, which was then cultured for 24 hours. After 24 hours, RNA was extracted from the cultured cells using a TransZol reagent, followed by performing RT-PCR (real-time genetic polymerase chain reaction) to measure an amount of mRNA change in MMP-1, which is related to skin aging and wrinkle formation. A product generated by the PCR was identified with a Gel Documentation system by performing electrophoresis on a 1% agarose gel. […]

COL1A1 = test: Wrinkle improvement efficacy: COL1A1 mRNA expression in HDFa; settings: treated with 50 μM, positive control
Description: In order to confirm an anti-aging efficacy of the Iris germanica rhizome-derived exosomes, they were evaluated for their effect on COL1A1 expression by comparing them with the Iris germanica rhizome extracts for each solvent. After inoculating a human dermal fibroblast (HDFa), they were cultured in a culture medium of Fibroblast Basal Medium (Medium 106) containing 100 IU/mL of penicillin and 100 μg/mL of streptomycin under 5% CO2 at 37° C. for 24 hours. After culturing, the medium was discarded, and the Iris germanica rhizome-derived exosomes (stock concentration 9.90×10^9 particles/mL) and the Iris germanica rhizome extracts for each solvent (stock concentration 100 mg/mL) were treated at each concentration and cultured for 48 hours. After culturing, RNA was extracted from the cultured cells using a TransZol reagent, followed by performing RT-PCR (real-time genetic polymerase chain reaction) to measure an amount of mRNA change in collagen, which maintains a skin connective tissue. A product generated by the PCR was identified with a Gel Documentation system by performing electrophoresis on a 1% agarose gel. In this case, a negative control group was treated with PBS, and a positive control group was treated with 50 μM of retinyl palmitate. […]

| Compound | AQP3 expression rate (AQP3 (Aquaporin 3)) | MMP-1 expression rate (MMP-1) | COL1A1 expression rate (COL1A1) |
| --- | --- | --- | --- |
| hyaluronic acid | 155.69% | – | – |
| CCCCCCCCCCCCCCCC(=O)OC/C=C(C)/C=C/C=C(C)/C=C/C1=C(C)CCCC1(C)C [retinyl palmitate] | – | 72.81% | 173.93% |
